Our source for the GI50 and TGI values is PubChem BioAssay (NCI).

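Dose response: 5 concentrations. Exposure: 48 h. Format: 96-well plates. Endpoint: linear interpolation; highest concentration if not reached. Abbreviation: GI50, concentration required for 50% inhibition of growth. At the TGI there is no net growth.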

Some test systems named below: OVCAR-4 ovarian; HS 578T breast; SK-MEL-5 melanoma; UACC-257 melanoma; HCC-2998 colon; HOP-62 NSCLC; DU-145 prostate; A549 NSCLC; SF-539 CNS; HOP-92 NSCLC.
What all share (assay): DTP human tumour cell line panel, 48 h

For orientation: GI50 means the concentration giving 50% growth inhibition. The term TGI denotes the concentration giving total growth inhibition. Higher therefore signals lower sensitivity of the cells. Take `COc1ccc(C2=NNC(c3sc(Cl)nc3Cl)C2)cc1` (configuration not stated): the GI50 in the test on OVCAR-4 ovarian is 11.5 µM; in the test with HS 578T breast, 16.8 µM; with SK-MEL-5 melanoma it was 3.51 µM; with UACC-257 melanoma, 16 µM; with HCC-2998 colon, 16.9 µM; in the test on HOP-62 NSCLC, 28.4 µM. Further, the values for the GI50 in the test on DU-145 prostate, with A549 NSCLC and in the test with SF-539 CNS were 7.38 µM, 29.8 µM and 4.58 µM, respectively. Also, the TGI in the test with OVCAR-4 ovarian is 25.4 µM; in the test on HS 578T breast, 67.4 µM; in the test with SK-MEL-5 melanoma, 14.3 µM; in the test with UACC-257 melanoma it was 36.2 µM; in the test with HCC-2998 colon, 33.9 µM; in the test on HOP-62 NSCLC, > 100 µM. Moreover, the concentration for total growth inhibition (TGI) in the test with DU-145 prostate is 20.4 µM; in the test with A549 NSCLC, > 100 µM; with SF-539 CNS, 32 µM.

For `Cc1cc(C)nc(NC(=O)COc2ccc(Cl)cc2)c1`, the TGI in the test with OVCAR-4 ovarian, with HS 578T breast, in the test on SK-MEL-5 melanoma, with UACC-257 melanoma, with HOP-62 NSCLC and with DU-145 prostate was > 100 µM in each case. The TGI in the test with HOP-92 NSCLC, with A549 NSCLC and with SF-539 CNS was > 100 µM each time.

For `CCCCS(=O)(=O)c1cc(Nc2ccc(O)c3c2C(=O)c2ccccc2C3=O)ccc1C`, the GI50 in the test with HS 578T breast is 75.5 µM; in the test with HCC-2998 colon, > 100 µM; with HOP-62 NSCLC, 27.8 µM; in the test on DU-145 prostate it was 5.01 µM; in the test on HOP-92 NSCLC, > 100 µM; with A549 NSCLC it was 1.88 µM. Besides, the GI50 in the test with SF-539 CNS was > 100 µM. Besides, the TGI in the test with HS 578T breast, in the test with HCC-2998 colon, with HOP-62 NSCLC, in the test on DU-145 prostate, with HOP-92 NSCLC and in the test with A549 NSCLC was > 100 µM in each case. Moreover, the TGI in the test with SF-539 CNS is > 100 µM.

Take `C[C@]12CCC3c4ccc(O)cc4CCC3C1CC[C@@H]2NC(=O)/C=C/c1ccc(O)c(O)c1` (some centres not stated): the GI50 in the test on OVCAR-4 ovarian was 5.94 µM; in the test with HS 578T breast, 15.4 µM; in the test with SK-MEL-5 melanoma, 10.5 µM; in the test with HCC-2998 colon, 15.6 µM; in the test with HOP-62 NSCLC, 16.1 µM; with DU-145 prostate, 13.1 µM. For the same molecule, the GI50 in the test with HOP-92 NSCLC is 5.59 µM; in the test with A549 NSCLC it was 15.5 µM. The TGI in the test with OVCAR-4 ovarian is 24.7 µM; in the test on HS 578T breast, > 100 µM; with SK-MEL-5 melanoma, 25.2 µM; with HCC-2998 colon, 30.3 µM; in the test on HOP-62 NSCLC it was 35.9 µM; in the test with DU-145 prostate, 32.5 µM. Further, the concentration for total growth inhibition (TGI) came to 25.1 µM with HOP-92 NSCLC and 31.8 µM with A549 NSCLC.

Regarding `OC[C@H]1N[C@H](CO)[C@@H](O)[C@H]1O`, the TGI in the test on HS 578T breast, in the test with SK-MEL-5 melanoma, in the test on UACC-257 melanoma, in the test with HCC-2998 colon, with HOP-62 NSCLC and in the test with DU-145 prostate was > 100 µM each time. Moreover, the TGI in the test with A549 NSCLC and with SF-539 CNS was > 100 µM throughout.

As to `O=C(O)CCN1C(=S)CSC1=S`, the total growth inhibition concentration (TGI) in the test with OVCAR-4 ovarian, in the test with HS 578T breast, in the test with SK-MEL-5 melanoma, in the test with UACC-257 melanoma, in the test on HOP-62 NSCLC and with DU-145 prostate was > 100 µM throughout. Besides, the concentration for total growth inhibition (TGI) with HOP-92 NSCLC, in the test with A549 NSCLC and with SF-539 CNS was > 100 µM throughout.

With `C=C(CN1CCc2ccccc2C1)c1ccc(CCCC(=O)Nc2ccccc2N)cc1`, the GI50 was 14.5 µM in the test with OVCAR-4 ovarian; 14 µM in the test on HS 578T breast; 5.01 µM in the test with SK-MEL-5 melanoma; 17.4 µM in the test with UACC-257 melanoma; 21.1 µM with HCC-2998 colon; 22.7 µM in the test with HOP-62 NSCLC. Moreover, the GI50 was 11.3 µM in the test on DU-145 prostate, 16.4 µM in the test on A549 NSCLC and 11.4 µM in the test on SF-539 CNS. Also, the TGI with OVCAR-4 ovarian came out at 49.8 µM; in the test on HS 578T breast, 43.4 µM; in the test with SK-MEL-5 melanoma, 17.3 µM; in the test on UACC-257 melanoma, 42 µM; in the test on HCC-2998 colon, 43.2 µM; in the test on HOP-62 NSCLC it was 75.2 µM. In addition, the total growth inhibition concentration (TGI) in the test on DU-145 prostate was 30.4 µM; in the test with A549 NSCLC, 58.8 µM; with SF-539 CNS, 24 µM.

As to `COC(=O)c1c(C(=O)O)c(-c2ccccc2)c(-c2ccccc2)c(-c2ccccc2)c1-c1ccccc1`, the GI50 in the test on HS 578T breast, in the test on SK-MEL-5 melanoma, with UACC-257 melanoma, in the test on HOP-62 NSCLC, in the test on DU-145 prostate and in the test with HOP-92 NSCLC was > 100 µM in each case. The GI50 in the test on A549 NSCLC and in the test with SF-539 CNS was > 100 µM in each case. The TGI with HS 578T breast, with SK-MEL-5 melanoma, in the test on UACC-257 melanoma, in the test with HOP-62 NSCLC, in the test with DU-145 prostate and in the test on HOP-92 NSCLC was > 100 µM in each case. The total growth inhibition concentration (TGI) in the test on A549 NSCLC and in the test with SF-539 CNS was > 100 µM in each case.

As for `CN(CCOc1ccc(NS(C)(=O)=O)cc1)CCc1ccc(NS(C)(=O)=O)cc1`, the GI50 in the test with OVCAR-4 ovarian, with HS 578T breast, in the test with HCC-2998 colon, in the test on HOP-62 NSCLC, in the test on DU-145 prostate and in the test with HOP-92 NSCLC was > 100 µM throughout. For the same molecule, the GI50 in the test on A549 NSCLC and in the test with SF-539 CNS was > 100 µM each time. In addition, the TGI in the test with OVCAR-4 ovarian, in the test with HS 578T breast, in the test on HCC-2998 colon, with HOP-62 NSCLC, in the test on DU-145 prostate and in the test with HOP-92 NSCLC was > 100 µM in each case. The TGI with A549 NSCLC and with SF-539 CNS was > 100 µM in each case.

Consider `O=C(O)C(Cc1ccccc1)N1C(=O)/C(=C/C(Cl)=C/c2ccc([N+](=O)[O-])cc2)SC1=S` (configuration not stated), for which the GI50 in the test with OVCAR-4 ovarian was 3.21 µM; in the test on HS 578T breast, 4.37 µM; in the test on SK-MEL-5 melanoma, 1.68 µM; in the test with UACC-257 melanoma, 1.97 µM; in the test with HCC-2998 colon, 1.96 µM; with HOP-62 NSCLC it was 2.31 µM. Further, the GI50 was 2.06 µM in the test with DU-145 prostate, 2.35 µM in the test on HOP-92 NSCLC and 3.46 µM with A549 NSCLC. Further, the total growth inhibition concentration (TGI) in the test on OVCAR-4 ovarian was > 100 µM; in the test on HS 578T breast, > 100 µM; in the test on SK-MEL-5 melanoma, 3.06 µM; in the test with UACC-257 melanoma, 4.95 µM; in the test with HCC-2998 colon, 3.5 µM; in the test with HOP-62 NSCLC, 6.75 µM. Moreover, the TGI in the test on DU-145 prostate is 4.56 µM; with HOP-92 NSCLC, 5.71 µM; in the test with A549 NSCLC, > 100 µM.
